# What was measured:
# [1] = Comparative intrinsic dissolution testing (Wood apparatus); assay type: physicochemical; settings: 400 mg sample compressed at 1.5 metric tons for 1 minute, 900 mL 0.01 N HCl buffer, 75 rpm
# Procedure: Intrinsic dissolution rate (IDR) measurements were performed using a Wood apparatus. Samples were prepared by compressing 400 mg sample at 1.5 metric tons for 1 minute. A dissolution medium consisting of 900 mL 0.01 N HCl buffer, and rotation speed of 75 rpm, was used for each experiment.
# [2] = cited from earlier work; for Hygroscopicity: as reported in the prior art or the CHMP report
# [3] = CHMP Assessment Report for KISQALI; anhydrous form; cited from earlier work
Compound,Intrinsic Dissolution Rate [1],Form conversion upon exposure to high humidity levels ([2]; WO 2012/064805 A1),Hygroscopicity [2],BCS Class [3],Solubility (BCS assessment) [3]
CN(C)C(=O)c1cc2cnc(Nc3ccc(N4CCNCC4)cn3)nc2n1C1CCCC1.O=C(O)CCC(=O)O [Ribociclib succinate non-hydrate form],1.9520 mg min^−1 cm^−2,converts to the hydrate form,hygroscopic,–,–
"CN(C)C(=O)c1cc2cnc(Nc3ccc(N4CCNCC4)cn3)nc2n1C1CCCC1 [Ribociclib succinate, 7-cyclopentyl-N,N-dimethyl-2-{[5-(piperazin-1-yl)pyridin-2-yl]amino}-7H-pyrrolo[2,3-d]pyrimidine-6-carboxamide]",–,–,exhibits hygroscopicity,Class IV,low solubility
